According to patent US20090270350A1, “Pyridinone Pyrazole Urea and Pyrimidinone Pyrazole Urea Derivatives” (PFIZER INC., priority 2006, published 2009):

These molecules were tested against p38α (Homo sapiens, UniProt Q16539) (assay: p38α/MK2 cascade assay). Details: Table 1; inhibitors preincubated with p38α for 40 minutes; phosphorylation of Hsp27 peptide by MK-2, Caliper LabChip 3000; read-out: p38a/MK2 Cascade 40 min Pre-Incuabtion (% Inhibition): IC50.
p38α, sequence (Q16539 whole entry): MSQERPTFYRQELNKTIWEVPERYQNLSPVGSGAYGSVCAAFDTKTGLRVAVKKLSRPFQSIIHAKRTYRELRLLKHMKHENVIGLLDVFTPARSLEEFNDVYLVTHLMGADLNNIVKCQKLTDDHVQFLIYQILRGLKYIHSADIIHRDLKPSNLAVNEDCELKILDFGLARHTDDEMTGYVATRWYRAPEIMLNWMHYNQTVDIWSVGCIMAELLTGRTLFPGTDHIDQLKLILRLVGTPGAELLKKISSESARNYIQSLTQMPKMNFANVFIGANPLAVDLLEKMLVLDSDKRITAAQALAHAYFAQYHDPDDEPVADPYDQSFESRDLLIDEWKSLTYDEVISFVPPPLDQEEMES
Format: biochemical
Procedure, shortened: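 In a cascade format, p38α was preincubated 40 min with inhibitor (1000–0.05 nM) before adding 1 nM nonactive MK2 (54-400), 5 μM MgATP and 0.5 μM FITC-Hsp27 peptide. Reaction ran 60 min in HEPES pH 7.5 with MgCl2, DTT, 2% DMSO, then EDTA-quenched. Peptide phosphorylation was measured by Caliper mobility shift to give IC50.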
Molecule `COc1cccc(Cn2c(C)cc(OCc3ccc(F)cc3CNC(=O)Nc3cc(C(C)(C)C)nn3-c3cccc(O)c3)c(Cl)c2=O)c1` [Example 50, 1-[3-tert-butyl-1-(3-hydroxyphenyl)-1H-pyrazol-5-yl]-3-[2-({[3-chloro-1-(3-methoxybenzyl)-6-methyl-2-oxo-1,2-dihydropyridin-4-yl]oxy}methyl)-5-fluorobenzyl]urea] has an IC50 of 6.5 nM.
With `COc1cccc(Cn2c(C)cc(OCc3ccc(F)cc3CNC(=O)Nc3cc(C(C)(C)C)nn3-c3cccc(OCCOC4CCCCO4)c3)c(Cl)c2=O)c1` (centres unmarked) [Example 41, 1-(3-tert-butyl-1-{3-[2-(tetrahydro-2H-pyran-2-yloxy)ethoxy]phenyl}-1H-pyrazol-5-yl)-3-[2-({[3-chloro-1-(3-methoxybenzyl)-6-methyl-2-oxo-1,2-dihydropyridin-4-yl]oxy}methyl)-5-fluorobenzyl]urea] the IC50 was 21.6 nM.
Molecule `Cc1ccc(-n2nc(C(C)(C)C)cc2NC(=O)NCc2cc(F)ccc2COc2cc(C)n(-c3cc(C(=O)NCCO)ccc3C)c(=O)c2Br)cc1` [Example 193, 3-{3-bromo-4-[(2-{[({[3-tert-butyl-1-(4-methylphenyl)-1H-pyrazol-5-yl]amino}carbonyl)amino]methyl}-4-fluorobenzyl)oxy]-6-methyl-2-oxopyridin-1(2H)-yl}-N-(2-hydroxyethyl)-4-methylbenzamide] has an IC50 of 2.21 nM.
`COc1ccc(Cn2c(C)cc(OCc3ccccc3CNC(=O)Nc3cc(C(C)(C)C)nn3-c3cccc(OC)c3)c(Br)c2=O)cc1` [Example 99, 1-[2-({[3-bromo-1-(4-methoxybenzyl)-6-methyl-2-oxo-1,2-dihydropyridin-4-yl]oxy}methyl)benzyl]-3-[3-tert-butyl-1-(3-methoxyphenyl)-1H-pyrazol-5-yl]urea] gave an IC50 of 3.49 nM.
`COc1ccc(Cn2c(C)cc(OCc3ccc(F)cc3CNC(=O)Nc3cc(C(C)(C)C)nn3-c3cccc(OCCO)c3)c(Cl)c2=O)cc1` [Example 60, 1-{3-tert-butyl-1-[3-(2-hydroxyethoxy)phenyl]-1H-pyrazol-5-yl}-3-[2-({[3-chloro-1-(4-methoxybenzyl)-6-methyl-2-oxo-1,2-dihydropyridin-4-yl]oxy}methyl)-5-fluorobenzyl]urea] was tested, and the IC50 was 3.7 nM.
For `COc1ccc(Cn2c(C)cc(OCc3ccccc3CNC(=O)Nc3cc(C(C)(C)C)nn3-c3ccc(C)cc3)c(Br)c2=O)cc1` [Example 101, 1-[2-({[3-bromo-1-(4-methoxybenzyl)-6-methyl-2-oxo-1,2-dihydropyridin-4-yl]oxy}methyl)benzyl]-3-[3-tert-butyl-1-(4-methylphenyl)-1H-pyrazol-5-yl]urea], the IC50 was 8.19 nM.
`Cc1cc(OCc2ccccc2CNC(=O)Nc2cc(C(C)(C)C)nn2-c2cccc(F)c2)c(Br)c(=O)n1Cc1ccccc1` [Example 103, 1-(2-{[(1-benzyl-3-bromo-6-methyl-2-oxo-1,2-dihydropyridin-4-yl)oxy]methyl}benzyl)-3-[3-tert-butyl-1-(3-fluorophenyl)-1H-pyrazol-5-yl]urea] showed an IC50 of 2.62 nM.
`CCc1c(OCc2ccccc2CNC(=O)Nc2cc(C(C)(C)C)nn2-c2cccc(F)c2)ncn(Cc2ccc(OC)cc2)c1=O` [Example 116, 1-[3-tert-butyl-1-(3-fluorophenyl)-1H-pyrazol-5-yl]-3-[2-({[5-ethyl-1-(4-methoxybenzyl)-6-oxo-1,6-dihydropyrimidin-4-yl]oxy}methyl)benzyl]urea] was tested, and the IC50 was 10.1 nM.
In the case of `COc1ccc(Cn2c(C)cc(OCc3ccccc3CNC(=O)Nc3cc(C(C)(C)C)nn3-c3cccc(Cl)c3)c(Br)c2=O)cc1` [Example 98], the IC50 is reported as 4.23 nM.
In the case of `CCc1c(OCc2ccccc2CNC(=O)Nc2cc(C(C)(C)C)nn2-c2ccc(C)cc2)ncn(Cc2ccccc2)c1=O` [Example 110, 1-(2-{[(1-benzyl-5-ethyl-6-oxo-1,6-dihydropyrimidin-4-yl)oxy]methyl}benzyl)-3-[3-tert-butyl-1-(4-methylphenyl)-1H-pyrazol-5-yl]urea], the IC50 is reported as 14.4 nM.
`COC(=O)c1ccc(C)c(-n2c(C)cc(OCc3ccc(F)cc3CNC(=O)Nc3cc(C(C)(C)C)nn3-c3cccc(OC)c3)c(Cl)c2=O)c1` [Example 183, Methyl 3-{4-[(2-{[({[3-tert-butyl-1-(3-methoxyphenyl)-1H-pyrazol-5-yl]amino}carbonyl)amino]methyl}-4-fluorobenzyl)oxy]-3-chloro-6-methyl-2-oxopyridin-1(2H)-yl}-4-methylbenzoate] was tested, and the IC50 was 2.26 nM.
Molecule `CCc1c(OCc2ccccc2CNC(=O)Nc2cc(C(C)(C)C)nn2-c2ccccc2)ncn(Cc2ccccc2)c1=O` [Example 113, 1-(2-{[(1-benzyl-5-ethyl-6-oxo-1,6-dihydropyrimidin-4-yl)oxy]methyl}benzyl)-3-(3-tert-butyl-1-phenyl-1H-pyrazol-5-yl)urea] has an IC50 of 10 nM.
For `COc1cccc(-n2nc(C(C)(C)C)cc2NC(=O)NCc2cc(F)ccc2COc2cc(C)n(-c3cc(C(=O)O)ccc3C)c(=O)c2Cl)c1` [Example 189, 3-{4-[(2-{[({[3-tert-butyl-1-(3-methoxyphenyl)-1H-pyrazol-5-yl]amino}carbonyl)amino]methyl}-4-fluorobenzyl)oxy]-3-chloro-6-methyl-2-oxopyridin-1(2H)-yl}-4-methylbenzoic acid], the IC50 was 2.55 nM.
Work on `Cc1ccc(-n2nc(C(C)(C)C)cc2NC(=O)NCc2cc(F)ccc2COc2cc(C)n(-c3cc(C(=O)O)ccc3C)c(=O)c2Cl)cc1` [Example 186, 3-{4-[(2-{[({[3-tert-butyl-1-(4-methylphenyl)-1H-pyrazol-5-yl]amino}carbonyl)amino]methyl}-4-fluorobenzyl)oxy]-3-chloro-6-methyl-2-oxopyridin-1(2H)-yl}-4-methylbenzoic acid] yielded an IC50 of 4.62 nM.

Same assay, conditions: Table 2; same p38α/MK2 cascade assay; 40 minutes preincubation; read-out: p38a/MK2 Cascade 40 min Pre-Incuabtion (% Inhibition): IC50
In the case of `CNC(=O)c1ccc(C)c(-n2c(C)cc(OCc3ccccc3CNC(=O)Nc3cc(C(C)(C)C)nn3-c3ccc(O)cc3)c(Cl)c2=O)c1` [Example 214, 3-{4-[(2-{[({[3-tert-butyl-1-(4-hydroxyphenyl)-1H-pyrazol-5-yl]amino}carbonyl)amino]methyl}benzyl)oxy]-3-chloro-6-methyl-2-oxopyridin-1(2H)-yl}-N,4-dimethylbenzamide], the IC50 is reported as 2.1 nM.
`COc1ccc(Cn2c(C)cc(OCc3ccccc3CNC(=O)Nc3cc(C(C)(C)C)nn3-c3cccc(O)c3)c(C)c2=O)cc1Cl` [Example 259, 1-[3-tert-butyl-1-(3-hydroxyphenyl)-1H-pyrazol-5-yl]-3-[2-({[1-(3-chloro-4-methoxybenzyl)-3,6-dimethyl-2-oxo-1,2-dihydro-pyridin-4-yl]oxy}methyl)benzyl]urea] gave an IC50 of 9.2 nM.
Molecule `COc1ccccc1Cn1c(C)cc(OCc2ccccc2CNC(=O)Nc2cc(C(C)(C)C)nn2-c2ccc(O)c(Cl)c2)c(Cl)c1=O` [Example 248, 1-[3-tert-butyl-1-(3-chloro-4-hydroxyphenyl)-1H-pyrazol-5-yl]-3-[2-({[3-chloro-1-(2-methoxybenzyl)-6-methyl-2-oxo-1,2-dihydropyridin-4-yl]oxy}methyl)benzyl]urea] has an IC50 of 15.1 nM.
`COc1cccc(Cn2c(C)cc(OCc3ccc(F)cc3CNC(=O)Nc3cc(C(C)(C)C)nn3-c3cccc(OC)c3)c(Cl)c2=O)c1` [Example 201, 1-[3-tert-butyl-1-(3-methoxyphenyl)-1H-pyrazol-5-yl]-3-[2-({[3-chloro-1-(3-methoxybenzyl)-6-methyl-2-oxo-1,2-dihydropyridin-4-yl]oxy}methyl)-5-fluoro-benzyl]urea] showed an IC50 of 4.5 nM.
Molecule `CSc1ccccc1Cn1c(C)cc(OCc2ccccc2CNC(=O)Nc2cc(C(C)(C)C)nn2-c2ccc(O)cc2)c(C)c1=O` [Example 241, 1-[3-tert-butyl-1-(4-hydroxyphenyl)-1H-pyrazol-5-yl]-3-{2-[({3,6-dimethyl-1-[2-(methylthio)benzyl]-2-oxo-1,2-dihydro-pyridin-4-yl}oxy)methyl]benzyl}urea] has an IC50 of 13.6 nM.
In the case of `COC(=O)c1ccc(C)c(-n2c(C)cc(OCc3ccc(F)cc3CNC(=O)Nc3cc(C(C)(C)C)nn3-c3cccc(O)c3)c(Cl)c2=O)c1` [Example 203, methyl 3-{4-[(2-{[({[3-tert-butyl-1-(3-hydroxy-phenyl)-1H-pyrazol-5-yl]amino}-carbonyl)amino]-methyl}-4-fluorobenzyl)oxy]-3-chloro-6-methyl-2-oxopyridin-1(2H)-yl}-4-methylbenzoate], the IC50 is reported as 2.8 nM.
`Cc1ccc(C(=O)NCC(N)=O)cc1-n1c(C)cc(OCc2ccccc2CNC(=O)Nc2cc(C(C)(C)C)nn2-c2ccc(O)c(Cl)c2)c(Cl)c1=O` [Example 233, N-(2-amino-2-oxoethyl)-3-{4-[(2-{[({[3-tert-butyl-1-(3-chloro-4-hydroxyphenyl)-1H-pyrazol-5-yl]amino}carbonyl)amino]-methyl}benzyl)oxy]-3-chloro-6-methyl-2-oxopyridin-1(2H)-yl}-4-methylbenzamide] gave an IC50 of 1.5 nM.
`COc1ccc(Cn2c(C)cc(OCc3ccccc3CNC(=O)Nc3cc(C(C)(C)C)nn3-c3ccc(O)cc3)c(C)c2=O)cc1Cl` [Example 267, 1-[3-tert-butyl-1-(4-hydroxyphenyl)-1H-pyrazol-5-yl]-3-[2-({[1-(3-chloro-4-methoxybenzyl)-3,6-dimethyl-2-oxo-1,2-dihydro-pyridin-4-yl]oxy}methyl)benzyl]urea] was tested, and the IC50 was 16.2 nM.
`Cc1ccc(C(=O)NCCO)cc1-n1c(C)cc(OCc2ccccc2CNC(=O)Nc2cc(C(C)(C)C)nn2-c2cccc(OCCO)c2)c(Cl)c1=O` [Example 210, 3-[4-{[2-({[({3-tert-butyl-1-[3-(2-hydroxyethoxy)phenyl]-1H-pyrazol-5-yl}amino)carbonyl]amino}methyl)-benzyl]oxy}-3-chloro-6-methyl-2-oxopyridin-1(2H)-yl]-N-(2-hydroxyethyl)-4-methylbenzamide] showed an IC50 of 2.9 nM.
